Data taken from patent US11111238B2, “Coumarin derivatives, processes for their preparation and uses thereof for the treatment of cancer” (Lead Discovery Center GmbH, priority 2017, dated 2021).
pIC50: −log10 of the molar value.

Legend:
[1] = tested on: mitochondrial transcription (7S RNA) in HeLa cells; assay: Quantitative real time-PCR assay of inhibition of mitochondrial transcription (cellular qPCR assay IMT); assay type: cell-based; details: Homo sapiens, 4 h compound incubation, qRT-PCR according to Example 5, activity class
Method in brief: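 HeLa cells were exposed 4 h to compound dilution series or DMSO. Mitochondrial 7S RNA, with POLRMT for nuclear transcription, was measured by TaqMan qRT-PCR, normalised to TBP. Biological triplicates were analysed by ΔΔCt and expressed as Rq % (2^-ΔΔCt).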

[2] = tested on: human A2780 ovary carcinoma xenograft; assay: Therapeutic effect on human A2780 ovary carcinoma xenograft in nude mice; assay type: in vivo, nude mice (female NMRI: nu/nu)
Procedure: In addition to the number of mice needed to build the groups necessary for the experiment, 8 additional mice were transplanted to have a sufficient number of satellite animals to improve stratification. Mice were stratified at day 7, when the mean tumor volume (TV) was 0.213±0.061 cm^3, (median TV=0.206 cm^3) into groups A-D with 8 mice each. 8 mice were excluded because of their tumor size.
Immediately before use, compound 14 was dissolved to obtain an injection solution to be sufficient for one week of treatment. The treatments were indicated as described in Table 6. […] Mean tumor […]±S.D. (RTV) was calculated. […] Mice of groups A, C and D were sacrificed at day 34 (QDx28 for times 28. Gross autopsy was performed from all mice.

HEC-59 (endometrial) = assay: CellTiter GLO viability assay, HEC-59; assay type: cell-based; details: 144 h, read-out: IC50 (μM) incubation time 144 h
Procedure: (§1) The CellTiter-Glo Luminescent Cell Viability Assay (Promega) is a homogeneous method of determining the number of viable cells in culture. It is based on quantification of ATP, indicating the presence of metabolically active cells.
(§2) Cells were seeded on day 1 at cell numbers that assure assay linearity and optimal signal intensity. After incubation for 3 h in humidified chambers at 37° C./5% CO2 compounds/DMSO were added at different concentrations. […] Cells treated with the compound vehicle DMSO were used as positive controls and cells treated with 10 μM Staurosporine served as negative controls. […] Thereon, mixture and assay plates were equilibrated at room temperature for 20 min. Equal volumes of the reagent-medium-mixture was added to the volume of culture medium present in each well.
(§3) The plates were mixed at ˜200 rpm for 2 minutes on an orbital shaker. The microplates were then incubated at room temperature for 10 minutes for stabilization of the luminescent signal. Following incubation the luminescence is recorded on a Victor microplate reader (Perkin Elmer) using 200 ms integration time. The data were then analyzed with Excel using the XLFIT Plugin (dose response Fit 205) for IC50-determination. As quality control the Z′-factor was calculated from 16 positive and negative control values. Only assay results showing a Z′-factor≥0.5 were used for further analysis.

NCI-H1299 (lung) = assay: CellTiter GLO viability assay, NCI-H1299; assay type: cell-based; details: Homo sapiens, 144 h, read-out: IC50 (μM) incubation time 144 h
Procedure: as §1, §2, §3

SW48 (colon) = assay: CellTiter GLO viability assay, SW48; assay type: cell-based; details: Homo sapiens, 144 h, read-out: IC50 (μM) incubation time 144 h
Procedure: as §1, §2, §3

SMILES: C[C@@H](Oc1ccc2c(-c3ccc(F)cc3Cl)cc(=O)oc2c1)C(=O)N1CCC[C@H](C(=O)O)C1 [Compound 14, (3S)-1-[(2R)-2-[4-(2-chloro-4-fluoro-phenyl)-2-oxo-chromen-7-yl]oxypropanoyl]piperidine-3-carboxylic acid]
- pIC50 [1]: > 8.00
- Mean tumor weight ([2]; 30 mg/kg p.o. QD × 21): 0.629 g
- RTV (relative tumor volume at day 27 compared to D 7) ([2]; 30 mg/kg p.o. QD × 21): 6.8
- Tumor weight, % of control ([2]; 30 mg/kg p.o. QD × 21): (75.5) %
- Tumor growth inhibition (D 27): Mean TV ([2]; 30 mg/kg p.o. QD × 21, day 27): 1.300 cm^3
- optimum T/C value ([2]; 50 mg/kg): 88.3%
- optimum T/C value ([2]; 100 mg/kg): 59.2%
- Mean tumor weight ([2]; 100 mg/kg p.o. QD × 28): 0.491 g
- RTV (relative tumor volume at day 27 compared to D 7) ([2]; 100 mg/kg p.o. QD × 28): 5.1
- Tumor weight, % of control ([2]; 100 mg/kg p.o. QD × 28): (60,0) %
- Tumor growth inhibition (D 27): Mean TV ([2]; 100 mg/kg p.o. QD × 28, day 27): 0.715 cm^3
- optimum T/C value ([2]; 200 mg/kg): 24.9%
- Mean tumor weight ([2]; 200 mg/kg p.o. QD × 28): 0.141 g
- RTV (relative tumor volume at day 27 compared to D 7) ([2]; 200 mg/kg p.o. QD × 28): 1.1
- Tumor weight, % of control ([2]; 200 mg/kg p.o. QD × 28): (16.99) %
- Tumor growth inhibition (D 27): Mean TV ([2]; 200 mg/kg p.o. QD × 28, day 27): 0.232 cm^3
- Tolerability ([2]; A2780 xenograft, p.o. QD): well tolerated
- Therapeutic effect: tumor growth inhibition ([2]; all doses): dose-dependent tumor growth inhibition
- Therapeutic effect: tumor growth inhibition ([2]; higher doses (100 and 200 mg/kg)): significantly more active regarding tumor growth inhibition
- Therapeutic effect: tumor growth inhibition ([2]; lowest dose (50 mg/kg)): no significant effect
- Autopsy at the end ([2]; mouse, in vivo): no abnormal observations
- signs of toxicity ([2]; mouse, in vivo, po): no signs of toxicity were observed
- IC50 (HEC-59 (endometrial)): > 10 µM
- IC50 (NCI-H1299 (lung)): 0.1 to 1 µM
- IC50 (SW48 (colon)): 0.1 to 1 µM
